Tests used:
Format in all cases: cell-based
[1] = test system: Human embryonic stem cells; assay: hESC 19-day 5-step differentiation with varying DAPT concentrations, real-time quantitative PCR; details: DAPT 0, 1, 3 or 10 μM for 2 days in step 4
Description: Human embryonic stem cells were differentiated for 19 days via a 5-step protocol to achieve islet hormone-expressing cells. The first step comprised 5 days differentiation in activin A (100 ng/mL) to robustly produce DE (D'Amour, K., et al., Nature Biotechnology 23, 1534-1541, (2005)). Step 2 comprised 2 days differentiation in RPMI with 2% FBS containing FGF10 (50 ng/mL) and KAAD-cyclopamine (0.5 μM). Step 3 comprised 4 days differentiation in CMRL with B27 supplement (1:100) containing FGF10 (50 ng/mL), KAAD-cyclopamine (0.2 μM), and retinoic acid (1 μM). The fourth step comprised 2 days treatment with CMRL with B27 supplement (1:100) containing exendin 4 (40 ng/mL) and with varying concentrations of the gamma secretase inhibitor DAPT (0 μM, 1 μM, 3 μM, or 10 μM). The last step comprised 6 days differentiation in DMEM with B27 supplement (1:100) containing nicotinamide (10 mM), exendin 4 (40 ng/mL), and insulin-like growth factor (IGF)-1 (50 ng/mL). Duplicate samples were taken from each plate and gene expression was analyzed by real-time quantitative PCR.

[2] = test system: Human embryonic stem cells; assay: hESC 16-day 4-step or 5-step differentiation time course, real-time quantitative PCR
Description: Human embryonic stem cells were differentiated for 16 days via either a 4-step or 5-step protocol to achieve islet hormone-expressing cells. The first step comprised 3 days differentiation in activin A (100 ng/mL) to robustly produce DE (D'Amour, K., et al., Nature Biotechnology 23, 1534-1541, (2005)). Step 2 comprised 3 days differentiation in RPMI with 2% FBS containing FGF10 (50 ng/mL) and KAAD-cyclopamine (0.2 μM). In the 4-step protocol, step 3 comprised 4 days differentiation in CMRL with B27 supplement (1:100) containing FGF10 (50 ng/mL), KAAD-cyclopamine (0.2 μM), retinoic acid (2 μM), and DAPT (1 μM). In the 5-step protocol, this 4 day period was broken into two separate treatments in the same base media. For 2 days the media contained FGF10 (50 ng/mL), KAAD-cyclopamine (0.2 μM), and retinoic acid (2 μM). During the subsequent 2 days, the FGF10 was removed and the gamma-secretase inhibitor DAPT (1 μM) was added. The last step of both protocols comprised 6 days differentiation in DMEM with B27 supplement (1:100) containing nicotinamide (10 mM), exendin 4 (40 ng/mL), hepatocyte growth factor (HGF 25 ng/mL), and insulin-like growth factor (IGF)-1 (50 ng/mL). Duplicate samples were taken from each plate at multiple time points and gene expression was analyzed by real-time quantitative PCR.

[3] = test system: Human embryonic stem cell lines; assay: hESC differentiation by 5-step 17-day protocol (treatments i-iv), gene expression by real-time quantitative PCR; details: KAAD-cyclopamine maintained in the presence of retinoic acid during step 3
Description: Human embryonic stem cell lines were differentiated for 17 days via a 5-step protocol to produce pancreatic islet hormone-expressing cells. […] Step 2 comprised 3 days differentiation in RPMI with 2% FBS containing one of the following: (a) 100 ng/mL activin A (treatment i), (b) no exogenous growth factors (treatment ii), or (c) 50 ng/mL FGF10 and 0.5 μM KAAD-cyclopamine (treatments iii and iv). Step 3 comprised 3 days differentiation in CMRL with B27 supplement (1:100) containing either (a) 2 μM retinoic acid (treatments i-iii) or (b) 2 μM retinoic acid and 0.5 μM KAAD-cyclopamine (treatment iv). Steps 4 and 5 were the same for all conditions (treatments i-iv). Step 4 comprised 2 days differentiation in CMRL with B27 supplement (1:100) containing 1 μM DAPT and 40 ng/mL exendin 4. Step 5 comprised 5 days differentiation in CMRL with B27 supplement (1:100) containing 40 ng/mL exendin 4. Duplicate samples were taken from each plate at multiple time points and gene expression was analyzed by real-time quantitative PCR.

[4] = test system: Human embryonic stem cells; assay: hESC 17-day 4-step differentiation with or without retinoic acid, real-time quantitative PCR; details: retinoic acid about 0.1-5 μM for at least about 1 day
Description: Human embryonic stem cells were differentiated for 17 days via a 4-step protocol to achieve islet hormone-expressing cells. The first step comprised 5 days differentiation in activin A (100 ng/mL) to robustly produce DE (D'Amour, K., et al., Nature Biotechnology 23, 1534-1541, (2005)). Step 2 comprised 2 days differentiation in RPMI with 2% FBS containing FGF10 (50 ng/mL) and KAAD-cyclopamine (1 μM) followed by 2 more days that also contained DAPT (1 μM). Step 3 comprised 5 days differentiation in CMRL with B27 supplement (1:100) containing FGF10 (50 ng/mL), KAAD-cyclopamine (1 μM), DAPT (1 μM) and either with or without the addition of retinoic acid (1 μM). The fourth step comprised 4 days differentiation in CMRL with B27 supplement (1:100) containing nicotinamide (10 mM), exendin 4 (50 ng/mL), hepatocyte growth factor (HGF 25 ng/mL), and insulin-like growth factor (IGF)-1 (50 ng/mL). Duplicate samples were taken from each plate at multiple time points and gene expression was analyzed by real-time quantitative PCR.

[5] = test system: Human ESCs; assay: hESC differentiation to insulin-expressing cells using noggin without exogenous retinoids, real-time PCR
Description: Human ESCs were differentiated to definitive endoderm cells via treatment with activin A (100 ng/ml) and Wnt3a (25 ng/ml) in RPMI+0% FBS for the first day and then for 2 more days with activin A (100 ng/ml) alone in RPMI+0.2% v/v FBS. Definitive endoderm was differentiated to foregut endoderm by treatment with KGF (50 ng/ml) and KAAD-cyclopamine (0.25 μM) for 3 days in RPMI+2% v/v FBS. Differentiation then proceeded in DMEM+1% v/v B27 supplement containing KGF (50 ng/ml) and KAAD-cyclopamine (0.25 μM) for one day followed by 5 additional days of the same with or without the addition of noggin (100 ng/ml). The B27 supplement used was either with (B27+) or without (B27-) vitamin A. On days 13, 14 and 15 of differentiation, the KGF was removed but the KAAD-cyclopamine (0.25 μM) and noggin (when used) remained in the culture medium. The differentiation medium for days 16-19 consisted of CMRL+1% v/v B27 (with or without vitamin A as in previous conditions) with no additional factors. Cultures were sampled in duplicate on days 3, 6, 9, 12, 15 and 19 of differentiation and analyzed for expression of pancreatic markers using real-time PCR.

[6] = test system: Human embryonic stem cells; assay: PDX1 protein and mRNA expression under different media conditions; details: insulin about 0.2-20 μg/ml or insulin-like growth factor about 10-500 ng/ml
Description: Human embryonic stem cells were differentiated in RPMI medium containing activin A (100 ng/ml) for 5 days. The FBS concentrations changed from 0% for the first 24 hours followed by 0.2% for the next 24 hrs and then to 2% for the remaining 3 days. During the next 4 days, the plates were subjected to different media conditions. They were either incubated in i) RPMI with 2% FBS and activin A (100 ng/ml), ii) RPMI with 2% FBS, activin A (25 ng/ml) and retinoic acid, iii) CMRL with 0.2% FBS and B27 supplement (1:100), activin A (25 ng/ml) and retinoic acid, and iv) CMRL with 0.2% FBS and B27 supplement (1:100), activin A (25 ng/ml), retinoic acid and exendin (40 ng/ml). The concentration of retinoic acid changed from 2 μM for 48 hours followed by 1 μM for 24 hours to 0.2 μM for the last 24 hours. The cells were harvested for protein and mRNA analyses on days 7, 8 and 9.
Without sufficient insulin signaling, PDX1 mRNA was expressed without significant translation into PDX1 protein (FIGS. 4A-4B). The base medium can be RPMI, CMRL, OptiMEM or DMEM with or without 2% FBS. If the base medium is supplemented with sufficient insulin/IGF and FGF10, PDX1 protein will be expressed.

[7] = test system: Human embryonic stem cells; assay: hESC 21-day 4-step differentiation with three step-1 conditions, real-time quantitative PCR; details: activin A 100 ng/ml, or follistatin 50 ng/ml and noggin 100 ng/ml
Description: Human embryonic stem cells were differentiated for 21 days via a 4-step protocol to achieve islet hormone-expressing cells. Three different conditions were used for the first step after which all plates received the identical treatment. The first step comprised 5 days differentiation under one of the following conditions: i) activin A (100 ng/ml) to robustly produce DE (D'Amour, K., et al., Nature Biotechnology 23, 1534-1541, (2005)), ii) 2% FBS with no exogenous growth factors, thereby producing mesoderm and extraembryonic endoderm, or iii) follistatin (50 ng/ml) and noggin (100 ng/ml), thereby producing neural ectoderm. Step 2 comprised 3 days differentiation in RPMI with 2% FBS containing FGF10 (50 ng/mL) and KAAD-cyclopamine (1 μM). Step 3 comprised 5 days differentiation in CMRL with B27 supplement (1:100) containing FGF10 (50 ng/mL), KAAD-cyclopamine (1 μM), retinoic acid (2 μM), and DAPT (1 μM). The fourth step consisted of 8 days differentiation in DMEM with B27 supplement (1:100) containing nicotinamide (10 mM), exendin 4 (40 ng/mL), hepatocyte growth factor (HGF-25 ng/mL), and insulin-like growth factor (IGF)-1 (50 ng/mL). Duplicate samples were taken from each plate at multiple time points and gene expression was analyzed by real-time quantitative PCR.

[8] = test system: Human ESCs; assay: hESC differentiation using combination of noggin and retinoic acid, QPCR
Description: Human ESCs were differentiated to definitive endoderm via treatment with activin A (100 ng/ml) and Wnt3a (25 ng/ml) in RPMI+0% FBS for the first day and then for 2 more days with activin A (100 ng/ml) alone in RPMI+0.2% v/v FBS. Definitive endoderm was differentiated to foregut endoderm by treatment with KGF (50 ng/ml) and KAAD-cyclopamine (0.25 μM) for 3 days in RPMI+2% v/v FBS. Differentiation then proceeded for 3 days in DMEM+1% v/v B27 supplement containing KAAD-cyclopamine (0.25 μM) and all-trans retinoic acid (0.1 μM or 2 μM) with or without the addition of noggin (0, 30 or 100 ng/ml). This was followed by a 2 day treatment period with the gamma-secretase inhibitor DAPT (1 μM) provided in DMEM+1% v/v B27 and subsequently the cells were cultured in CMRL+1% v/v B27 with no additional growth factors.

[9] = noggin 100 ng/ml, B27 with or without vitamin A

**Q.** For `C[C@H](NC(=O)Cc1cc(F)cc(F)c1)C(=O)N[C@H](C(=O)OC(C)(C)C)c1ccccc1` [DAPT, N—[N-(3,5-difluorophenacetyl)-L-alanyl]-S-phenylglycine t-butyl ester], which “Effect on expression of pancreatic hormones and transcription factors after 19 days” value [1] is on record?
**A.** very little to no insulin, glucagon, somatostatin or principal pancreatic transcription factors were produced in the absence of DAPT

**Q.** What about the “Effect on NGN3 and PAX4 expression” value ([2]; 2-4 day application of DAPT in terminal days of RA addition or after RA withdrawal) of the same molecule?
**A.** transient induction of NGN3 and PAX4 expression

**Q.** Which “Increase of performance of endocrine differentiation relative to treatment iii” value [3] does the source give for `CC1=C2C[C@H]3[C@@H](CC=C4CC(=O)CC[C@@]43C)[C@@H]2CC[C@]12O[C@@H]1C[C@H](C)CN(CCNC(=O)CCCCCNC(=O)CCc3ccccc3)[C@H]1[C@H]2C` [KAAD-cyclopamine] here?
**A.** 2 fold

**Q.** Which results are given for `CC1=C(/C=C/C(C)=C/C=C/C(C)=C/C(=O)O)C(C)(C)CCC1` [retinoic acid, all-trans retinoic acid]?
**A.** Effect on insulin expression [4]: insulin was not expressed unless retinoic acid was applied; Effect on HNF6 and PDX1 expression ([2]; retinoic acid 2 μM in step 3): robustly increased expression of HNF6 and PDX1

**Q.** How did the “Magnitude of pancreatic hormone expression” value ([5]; B27 supplement with versus without vitamin A) turn out when `CC1=C(/C=C/C(C)=C/C=C/C(C)=C/CO)C(C)(C)CCC1` [vitamin A, retinol, reference compound] was run?
**A.** enhanced by the presence of vitamin A

**Q.** With insulin-like growth factor as the molecule, how does the “Effect on PDX1 protein expression” value [6] read?
**A.** promotes the expression of PDX1 protein

**Q.** How did the “Effect on PDX1 protein expression” value [6] turn out when insulin: insulin as medium supplement was run?
**A.** promotes the expression of PDX1 protein

B1: activin A: growth factor of the TGFβ superfamily (protein, UniProt P08476 311-426, looked up)
Inhibin beta A chain: GLECDGKVNICCKKQFFVSFKDIGWNDWIIAPSGYHANYCEGECPSHIAGTSGSSLSFHSTVINHYRMRGHSPFANLKSCCVPTKLRPMSMLYYDDGQNIIKKDIQNMIVEECGCS
**Q.** How did the “Lineage marker expression at 5 days of differentiation (step 1)” value [7] turn out when B1 was run?
**A.** robust production of definitive endoderm

B2: noggin: recombinant human Noggin (protein, UniProt Q13253 28-232, looked up)
Noggin: QHYLHIRPAPSDNLPLVDLIEHPDPIFDPKEKDLNETLLRSLLGGHYDPGFMATSPPEDRPGGGGGAAGGAEDLAELDQLLRQRPSGAMPSEIKGLEFSEGLAQGKKQRLSKKLRRKLQMWLWSQTFCPVLYAWNDLGSRFWPRYVKVGSCFSKRSCSVPEGMVCKPSKSVHLTVLRWRCQRRGGQRCGWIPIQYPIISECKCSC
**Q.** For B2, which “Expression of pancreatic hormones INS, GCG, SST and GHRL” value ([5]; noggin 100 ng/ml) is on record?
**A.** also dependent on the presence of noggin

**Q.** And the “Induction of PDX1 gene expression” value [5, 9]?
**A.** not dependent on either noggin treatment

**Q.** And the “NGN3 expression induced at day 12 (pancreatic endocrine differentiation)” value [5, 9]?
**A.** highly dependent on the presence of noggin

**Q.** And the “Expression levels of PDX1 at days 9 or 11” value ([8]; noggin 0, 30 or 100 ng/ml with retinoic acid 0.1 μM or 2 μM)?
**A.** very little effect

**Q.** And the “Expression of NGN3 at day 9” value ([8]; noggin added to low dose RA (0.1 μM))?
**A.** dramatically enhanced

— US9980986B2, “Methods of producing pancreatic hormones” (ViaCyte, Inc., priority 2006, dated 2018)
